Assay results from patent US9365522B2, “Pyrazole amide derivative” (AMGEN INC., priority 2015, dated 2016).

Target: T1, human RORγ-LBD (Homo sapiens, UniProt P51449)
T1 construct: made in house; host or cells: E. coli (BL-21)
T1 sequence (P51449 262-518): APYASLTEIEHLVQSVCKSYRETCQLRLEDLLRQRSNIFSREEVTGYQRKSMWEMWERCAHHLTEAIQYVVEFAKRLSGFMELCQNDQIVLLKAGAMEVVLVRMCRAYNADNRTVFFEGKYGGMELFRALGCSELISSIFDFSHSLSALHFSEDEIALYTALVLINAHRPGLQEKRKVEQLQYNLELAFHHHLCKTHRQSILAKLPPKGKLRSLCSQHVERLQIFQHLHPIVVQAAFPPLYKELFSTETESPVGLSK
Assay: ROR gamma coactivator peptide recruitment Alphascreen assay (RORγ-LBD binding to GRIP1 coactivator peptide)
Format: biochemical
Settings: 5 nM human RORγ-LBD, 30 nM 7-β-hydroxycholesterol, 50 nM biotinylated GRIP1 coactivator peptide, overnight incubation at room temperature; read-out: result (pIC50, RORγ coactivator peptide recruitment Alphascreen assay) (converted)
Outline: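 Alphascreen proximity read-out after overnight room-temperature incubation, yielding pIC50 from 1-in-2 compound series (2.5% DMSO final). Mixture: 50 nM biotin-GRIP1 peptide, 30 nM 7-β-hydroxycholesterol agonist, 5 nM recombinant 6×His:Flag human RORγ-LBD (aa 262-518), 50 mM HEPES pH 7.4.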

SMILES | IC50
CC(C)(C)CN(CC(=O)c1c(Cl)cncc1Cl)C(=O)c1cnn([C@H]2CC[C@@](C)(C(=O)O)C[C@@H]2F)c1C(F)(F)F [Example 870, (1R,3S,4S)-4-(4-((2-(3,5-dichloro-4-pyridinyl)-2-oxoethyl)(2,2-dimethylpropyl)carbamoyl)-5-(trifluoromethyl)-1H-pyrazol-1-yl)-3-fluoro-1-methylcyclohexanecarboxylic acid] | 575 nM
CC(C)(C)CN(CC(=O)c1c(Cl)cncc1Cl)C(=O)c1cnn([C@@H]2CC[C@]3(C(=O)O)CCC[C@@H]3C2)c1C(F)(F)F [Example 871] | 5.01 nM
COc1ncc(Cl)c(CCN(CC(C)(C)C)C(=O)c2cnn([C@H]3CC[C@](C)(C(=O)O)CC3)c2C(F)(F)F)c1Cl [Example 872, trans-4-(4-((2-(3,5-dichloro-2-methoxy-4-pyridinyl)ethyl)(2,2-dimethylpropyl)carbamoyl)-5-(trifluoromethyl)-1H-pyrazol-1-yl)-1-methylcyclohexanecarboxylic acid] | 97.7 nM
C[C@H]1C[C@@H](n2ncc(C(=O)N(CC(=O)c3c(Cl)cncc3Cl)CC(C)(C)C)c2C(F)(F)F)CC[C@]1(C)C(=O)O [Example 873, (1S,2S,4S)-4-(4-((2-(3,5-dichloro-4-pyridinyl)-2-oxoethyl)(2,2-dimethylpropyl)carbamoyl)-5-(trifluoromethyl)-1H-pyrazol-1-yl)-1,2-dimethylcyclohexanecarboxylic acid] | 5.25 nM
C[C@@H]1C[C@H](n2ncc(C(=O)N(CC(=O)c3c(Cl)cncc3Cl)CC(C)(C)C)c2C(F)(F)F)CC[C@@]1(C)C(=O)O [Example 874, (1R,2R,4R)-4-(4-((2-(3,5-dichloro-4-pyridinyl)-2-oxoethyl)(2,2-dimethylpropyl)carbamoyl)-5-(trifluoromethyl)-1H-pyrazol-1-yl)-1,2-dimethylcyclohexanecarboxylic acid] | 7.76 nM
C[C@H]1C[C@H](n2ncc(C(=O)N(CC(=O)c3c(Cl)cncc3Cl)CC(C)(C)C(F)(F)F)c2C(F)(F)F)CC[C@H]1C(=O)O [Example 875, (1R,2S,4R)-4-(4-((2-(3,5-dichloro-4-pyridinyl)-2-oxoethyl)(3,3,3-trifluoro-2,2-dimethylpropyl)carbamoyl)-5-(trifluoromethyl)-1H-pyrazol-1-yl)-2-methylcyclohexanecarboxylic acid] | 11.7 nM
CC(C)(C)CN(CC(=O)c1c(Cl)cncc1Cl)C(=O)c1cnn([C@H]2CC[C@@]3(C(=O)O)CCC[C@H]3C2)c1C(F)(F)F [Example 876, (3aS,6S,7aS )-6-(4-((2-(3,5-dichloropyridin-4-yl)-2-oxoethyl)(neopentyl)carbamoyl)-5-(trifluoromethyl)-1H-pyrazol-1-yl)octahydro-1H-indene-3a-carboxylic acid] | 6.17 nM
CC(C)(C)CN(CC(=O)c1c(Cl)cncc1Cl)C(=O)c1cnn([C@@H]2CC[C@]3(C(=O)O)CCC[C@@H]3C2)c1C(F)(F)F [Example 877, (3aR,6R,7aR)-6-(4-((2-(3,5-dichloropyridin-4-yl)-2-oxoethyl)(neopentyl)carbamoyl)-5-(trifluoromethyl)-1H-pyrazol-1-yl)octahydro-1H-indene-3a-carboxylic acid] | 6.17 nM
C[C@@H]1C[C@H](n2ncc(C(=O)N(CC(=O)c3c(Cl)cncc3Cl)CC(C)(C)C(F)(F)F)c2C(F)(F)F)CC[C@H]1C(=O)O [Example 878, (1R,2R,4R)-4-(4-((2-(3,5-dichloro-4-pyridinyl)-2-oxoethyl)(3,3,3-trifluoro-2,2-dimethylpropyl)carbamoyl)-5-(trifluoromethyl)-1H-pyrazol-1-yl)-2-methylcyclohexanecarboxylic acid] | 3.89 nM
C[C@@H]1C[C@H](n2ncc(C(=O)N(CC(=O)c3c(Cl)cncc3Cl)C[C@]34CC[C@H](CC3)O4)c2C(F)(F)F)CC[C@H]1C(=O)O [Example 880, (1R,2R,4R)-4-(4-((2-(3,5-dichloro-4-pyridinyl)-2-oxoethyl)((1s,4s)-7-oxabicyclo[2.2.1]hept-1-ylmethyl)carbamoyl)-5-(trifluoromethyl)-1H-pyrazol-1-yl)-2-methylcyclohexanecarboxylic acid] | 16.2 nM
C[C@H]1C[C@@H](n2ncc(C(=O)N(CC(=O)c3c(Cl)cncc3Cl)C[C@]34CC[C@H](CC3)O4)c2C(F)(F)F)CC[C@@H]1C(=O)O [Example 881, (1S,2S,4S)-4-(4-((2-(3,5-dichloro-4-pyridinyl)-2-oxoethyl)((1s,4s)-7-oxabicyclo[2.2.1]hept-1-ylmethyl)carbamoyl)-5-(trifluoromethyl)-1H-pyrazol-1-yl)-2-methylcyclohexanecarboxylic acid] | 24.5 nM
C[C@@H]1C[C@@](C)(C(=O)O)CC[C@@H]1n1ncc(C(=O)N(CC(=O)c2c(Cl)cncc2Cl)CC(C)(C)C)c1C(F)(F)F [Example 882, (1S,3R,4S)-4-(4-((2-(3,5-dichloro-4-pyridinyl)-2-oxoethyl)(2,2-dimethylpropyl)carbamoyl)-5-(trifluoromethyl)-1H-pyrazol-1-yl)-1,3-dimethylcyclohexanecarboxylic acid] | 646 nM
C[C@H]1C[C@](C)(C(=O)O)CC[C@H]1n1ncc(C(=O)N(CC(=O)c2c(Cl)cncc2Cl)CC(C)(C)C)c1C(F)(F)F [Example 883, (1R,3S,4R)-4-(4-((2-(3,5-dichloro-4-pyridinyl)-2-oxoethyl)(2,2-dimethylpropyl)carbamoyl)-5-(trifluoromethyl)-1H-pyrazol-1-yl)-1,3-dimethylcyclohexanecarboxylic acid] | 708 nM
CC(C)(CN(CC(=O)c1c(Cl)cncc1Cl)C(=O)c1cnn([C@H]2CC[C@H](CC(=O)O)CC2)c1C(F)(F)F)C(F)(F)F [Example 884, (trans-4-(4-((2-(3,5-dichloro-4-pyridinyl)-2-oxoethyl)(3,3,3-trifluoro-2,2-dimethylpropyl)carbamoyl)-5-(trifluoromethyl)-1H-pyrazol-1-yl)cyclohexyl)acetic acid] | 1.82 nM
CC(C)(C)CN(CCc1c(Cl)c[nH]c(=O)c1Cl)C(=O)c1cnn([C@H]2CC[C@](C)(C(=O)O)CC2)c1C(F)(F)F [Example 885, trans-4-(4-((2-(3,5-dichloro-2-oxo-1,2-dihydro-4-pyridinyl)ethyl)(2,2-dimethylpropyl)carbamoyl)-5-(trifluoromethyl)-1H-pyrazol-1-yl)-1-methylcyclohexanecarboxylic acid] | 741 nM
C[C@@H]1C[C@@H](n2ncc(C(=O)N(CCc3c(Cl)c[nH]c(=O)c3Cl)CC(C)(C)C)c2C(F)(F)F)CC[C@@H]1C(=O)O [Example 886, (1S,2R,4S)-4-(4-((2-(3,5-dichloro-2-oxo-1,2-dihydro-4-pyridinyl)ethyl)(2,2-dimethylpropyl)carbamoyl)-5-(trifluoromethyl)-1H-pyrazol-1-yl)-2-methylcyclohexane carboxylic acid] | 468 nM
COc1ncc(Cl)c(CCN(CC(C)(C)C)C(=O)c2cnn([C@H]3CC[C@H](C(=O)O)[C@H](C)C3)c2C(F)(F)F)c1Cl [Example 887, (1S,2R,4S)-4-(4-((2-(3,5-dichloro-2-methoxy-4-pyridinyl)ethyl)(2,2-dimethylpropyl)carbamoyl)-5-(trifluoromethyl)-1H-pyrazol-1-yl)-2-methylcyclohexanecarboxylic acid] | 16.2 nM
COc1cc(Cl)c(C(=O)CN(CC2(F)CCCC2)C(=O)c2cnn([C@H]3CC[C@H](CC(=O)O)CC3)c2C(F)(F)F)c(Cl)c1 [Example 888, (trans-4-(4-((2-(2,6-dichloro-4-methoxyphenyl)-2-oxoethyl)((1-fluorocyclopentyl)methyl)carbamoyl)-5-(trifluoromethyl)-1H-pyrazol-1-yl)cyclohexyl)acetic acid] | 3.24 nM
COc1cc(Cl)c(C(=O)CN(Cc2ccc(F)cc2)C(=O)c2cnn([C@H]3CC[C@H](CC(=O)O)CC3)c2C(F)(F)F)c(Cl)c1 [Example 889, (trans-4-(4-((2-(2,6-dichloro-4-methoxyphenyl)-2-oxoethyl)(4-fluorobenzyl)carbamoyl)-5-(trifluoromethyl)-1H-pyrazol-1-yl)cyclohexyl)acetic acid] | 2.04 nM
Cc1cc(Cl)c(C(=O)CN(CC2(C)CCC2)C(=O)c2cnn([C@H]3CC[C@H](CC(=O)O)CC3)c2C(F)(F)F)c(Cl)c1 [Example 890, (trans-4-(4-((2-(2,6-dichloro-4-methylphenyl)-2-oxoethyl)((1-methylcyclobutyl)methyl)carbamoyl)-5-(trifluoromethyl)-1H-pyrazol-1-yl)cyclohexyl)acetic acid] | 0.708 nM
COc1cc(Cl)c(C(=O)CN(CC2CCC3(CCC3)CC2)C(=O)c2cnn([C@H]3CC[C@@](C)(C(=O)O)CC3)c2C(F)(F)F)c(Cl)c1 [Example 891, trans-4-(4-((2-(2,6-dichloro-4-methoxyphenyl)-2-oxoethyl)(spiro[3.5]non-7-ylmethyl)carbamoyl)-5-(trifluoromethyl)-1 H-pyrazol-1-yl)-1 - methylcyclohexanecarboxylic acid] | 15.5 nM
CC(C)(C)CN(CCc1c(Cl)cn2ncnc2c1Cl)C(=O)c1cnn([C@H]2CC[C@](C)(C(=O)O)CC2)c1C(F)(F)F [Example 892, trans-4-(4-((2-(6,8-dichloro[1,2,4]triazolo[1,5-a]pyridin-7-yl)ethyl)(2,2-dimethylpropyl)carbamoyl)-5-(trifluoromethyl)-1H-pyrazol-1-yl)-1-methylcyclohexanecarboxylic acid] | 302 nM
